Each structure is given as a SMILES string. The source made the active and inactive calls. Rule as the data show it: actives have a measured IC50 and inactives only a lower limit.

In the assay the target is Envelope glycoprotein gp160 (Human immunodeficiency virus 1, UniProt Q6QLK5). Nature of the assay: cell-free HIV fusion peptide-binding blockers – biochemical, uHTS, fluorescence dequenching, […] (AID 1986).
Envelope glycoprotein gp160, sequence (Q6QLK5 whole entry, the tested form may be a part): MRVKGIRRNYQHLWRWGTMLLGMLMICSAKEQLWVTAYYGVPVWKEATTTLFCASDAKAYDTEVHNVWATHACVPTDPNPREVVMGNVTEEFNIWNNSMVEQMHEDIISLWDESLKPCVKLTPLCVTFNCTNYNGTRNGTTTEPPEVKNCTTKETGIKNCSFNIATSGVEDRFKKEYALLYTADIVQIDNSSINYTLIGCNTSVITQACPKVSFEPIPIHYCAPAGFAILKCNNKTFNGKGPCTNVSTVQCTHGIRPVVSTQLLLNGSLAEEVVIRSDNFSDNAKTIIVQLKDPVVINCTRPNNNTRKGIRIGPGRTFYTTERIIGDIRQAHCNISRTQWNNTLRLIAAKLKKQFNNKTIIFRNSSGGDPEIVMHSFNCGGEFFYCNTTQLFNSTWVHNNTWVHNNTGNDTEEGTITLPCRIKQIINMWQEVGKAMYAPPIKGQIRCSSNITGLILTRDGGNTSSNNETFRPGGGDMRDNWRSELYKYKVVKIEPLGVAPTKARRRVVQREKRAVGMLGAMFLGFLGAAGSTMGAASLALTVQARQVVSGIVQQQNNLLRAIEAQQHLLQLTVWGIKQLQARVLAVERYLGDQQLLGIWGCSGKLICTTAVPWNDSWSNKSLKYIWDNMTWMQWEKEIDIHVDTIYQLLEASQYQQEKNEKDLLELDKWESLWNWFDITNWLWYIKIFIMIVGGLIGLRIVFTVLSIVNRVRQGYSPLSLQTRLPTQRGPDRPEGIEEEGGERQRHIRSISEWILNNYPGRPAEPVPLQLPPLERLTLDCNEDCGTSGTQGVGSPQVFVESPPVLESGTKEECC
As a reminder, the IC50 is the concentration at which inhibition is half-maximal. In the case of `CC(C)c1ccc(OCC(=O)Nc2cccc(C(=O)Nc3ccccc3C(=O)O)c2)cc1`, the IC50 was 16.9 µM (active).
In the case of `O=C(O)c1ccc(Cl)c(S(=O)(=O)Nc2ccccc2C(=O)Nc2ccc(Cl)cc2)c1`, the IC50 is 17.9 µM (active).
Regarding `Cc1cccc(OCC(=O)Nc2ccc(C(=O)Nc3ccccc3C(=O)O)cc2)c1C`, the IC50 was 28.3 µM (active).
Take `COc1cc(/C=C2\SC(=O)N(Cc3ccc(F)cc3)C2=O)cc([N+](=O)[O-])c1O`: the IC50 is 19.7 µM (active).
`C/C(=N\Nc1ccc(C(=O)O)cc1)c1ccc2c(c1)Nc1ccccc1S2`: the IC50 was 15.4 µM (active).

The values above are taken from ChEMBL document CHEMBL1201862, “PubChem BioAssay data set” (2004).
